The values below are quoted from earlier work in US5698219A, “Nanoemulsion of the oil water type, useful as an ophthalmic vehicle and process for the preparation thereof” (Laboratorios Cusi, S.A., priority 1994, dated 1997).

For the data set the following is noted: EP 0 521 799 A1; benzalkonium chloride at 0.02% (w/v).

Consider `C[CH2][Hg][S]c1ccccc1C(=O)[O-].[Na+]` [thimerosal], for which the “preservative effectiveness when used individually” value is “lack of effectiveness”.

Regarding benzalkonium chloride, the “preservative effectiveness when used individually” value is given as “lack of effectiveness”.
